The record followed here is patent publication US11406683B2, “Compounds and therapeutics uses thereof” (Centauri Therapeutics Limited (GB/GB), priority 2017, dated 2022).

In assay [1] the test system is Pseudomonas Aeruginosa PA01 (ATCC 15692). The assay can be described thus: Flow cytometric antibody recruitment assay using an anti-Rhamnose antibody. Format: cell-based. Particulars: 40 μM substance; MFI (PE) over vehicle control; human anti-Rhamnose IgG polyclonal antibody 42 μg/mL; binding to bacterial surface. The procedure: Flow Cytometric Antibody Recruitment Assay Using an Anti-Rhamnose Antibody
A secondary fluorescently labelled anti-IgG antibody was used to detect the anti-Rhamnose antibody binding.
The assays were carried out in polystyrene 96-well U bottom plates (Costar) blocked with 200 μl of Casein blocking buffer for 1 hour at room temperature (Fisher 37528). Pseudomonas Aeruginosa PA01 (ATCC 15692) was grown in LB broth, Miller (Fisher BP1426-500) to late exponential phase. Subsequently, the bacteria were washed once with Hank's Balanced Salt Solution with calcium and magnesium (HBSS+/+) and then resuspended in HBSS+/+ at a bacterial density of 2×10^9 colony forming units (CFU)/mL. […] The bacteria were then washed three times with 200 μL HBSS+/+, prior to adding 50 μL of the human anti Rhamnose IgG polyclonal antibody at a final concentration of 42 μg/mL in HBSS+/+. The samples were incubated for 1 hour at room temperature shaking at 450 rpm. The bacteria were washed three times as above, prior to adding 100 μL of a PE-labeled anti-human IgG Fc secondary antibody (Biolegend 409304) at 10 μg/mL in HBSS+/+ and incubating at room temperature for 1 hour at 450 rpm. After three final washes with 200 μL HBSS+/+, the bacteria were resuspended in 200 μL HBSS+/+ and evaluated for anti-Rhamnose antibody binding on a Cytoflex flow cytometer (Beckman Coulter). 50,000 counts of bacterial particles were sampled and the median fluorescent shift was recorded in the PE-A channel. Data from all samples were analysed using Kaluza software (Beckman Coulter).
The fold shift over background was calculated by dividing the Median Fluorescent Intensity (MFI) obtained in the presence of 40 μM of the Example compounds by the MFI value obtained in the vehicle controls, i.e., the absence of Examples. The higher the fold shift over background, the more anti-Rhamnose was bound to the bacterial surface. The shift in fluorescence intensity (PE) occurs due to the binding event at each end of the molecule.
(In general: A flow cytometer gives signals particle by particle.)

Assay [2] relates to E. coli K1:O18ac:H7 (ATCC 700973). The assay can be described thus: Flow cytometric complement deposition assay with human serum. It counts as cell-based. Particulars: MFI (APC) over vehicle, 25% pooled human serum, 37° C., 20 min; for C3b deposition (5 μM, Average fold change): 5 μM compound, C3b/iC3b on bacterial surface. Here is the method: Flow Cytometric Complement Deposition Assay with Human Serum
The assays were carried out in polystyrene 96-well U bottom plates (Costar). E. coli K1:O18ac:H7 (American Type Culture Collection, ATCC 700973) was grown in LB broth, Miller (Fisher BP1426-500) to late exponential phase. Subsequently, the bacteria were washed in Hank's Balanced Salt Solution with calcium and magnesium (HBSS+/+) and then resuspended in assay buffer, i.e., PBS with 1% bovine serum albumin (BSA, Sigma A2153) at a concentration of 2×10^9 CFU/mL. […] Subsequently, 150 μL ice-cold HBSS+/+ was added, the bacteria were pelleted and then washed once with 200 μL HBSS+/+, prior to adding 100 μL of pooled human serum (Innovate Research IPLA-CSER) as anti-Rhamnose antibody and complement source in PBS, 1% BSA to a final serum concentration of 25%. Bacteria were incubated at 37° C. for 20 min to allow for anti-Rhamnose binding to the compounds and complement deposition. 100 μL ice-cold HBSS+/+ was added to each well to stop the reaction. The bacteria were pelleted by centrifugation at 4° C. and the supernatants discarded. The bacteria were then washed two times with 200 μL refrigerated HBSS+/+, prior to adding 100 μL of APC-labelled anti-human C3b/iC3b antibody (Biolegend 846106; clone 3E7/C3b) at 1:25 dilution in PBS, 1% BSA and incubated at 4° C. for 45 min. After three final washes with 200 μL HBSS+/+, the bacteria were resuspended in HBSS+/+ and their fluorescence profile as an indicator for complement deposition evaluated on a Cytoflex flow cytometer (Beckman Coulter). The median fluorescent intensity (MFI) was recorded in the APC channels. Data from all samples were analysed using Kaluza software (Beckman Coulter).
The fold shift over background was calculated by dividing the MFI obtained in the presence of the Examples (5 μM) by the MFI obtained in the absence of Examples, i.e., in the presence of vehicle. The shift in fluorescence intensity (APC) occurred due to detection of covalently bound complement components C3b/iC3b to the surface of the bacteria.

Bridge positions count the residues as written; N and C are the ends. Square brackets hold non-standard residues; d marks the D form. Side chains are listed from the residue outwards. Peptide text beside a SMILES is read from it. * marks the point of attachment. X1 = C[C@@H]1OC(OCCCC(=O)NCCNC(=O)COc2cc(OCC(=O)NCCNC(=O)CCCOC3O[C@@H](C)C(O)C(O)[C@@H]3O)cc(-c3cc(OCC(=O)NCCNC(=O)CCCOC4O[C@@H](C)C(O)C(O)[C@@H]4O)cc(C(=O)*)c3)c2)[C@@H](O)C(O)C1O; X3 = C[C@@H]1OC(OCCCC(=O)NCCNC(=O)COc2ccc(-c3cccc(C(=O)*)c3)cc2)[C@@H](O)C(O)C1O; Gly(octyl) = CCCCCCCC[C@H](N)C(=O)O; Nonanoyl = CCCCCCCCC(=O)*; X2 = CC[C@H](C)CCCCC(=O)*; Dab = NCC[C@H](N)C(=O)O; Ahx = NCCCCCC(=O)O

On to `CCCCCCCC[C@H](NC(=O)CCCCCNC(=O)CCCCCNC(=O)c1cccc(-c2ccc(OCC(=O)NCCNC(=O)CCCOC3O[C@@H](C)C(O)C(O)[C@@H]3O)cc2)c1)C(=O)N[C@@H](CCN)C(=O)N[C@H](C(=O)N[C@@H](CCN)C(=O)N[C@H]1CCNC(=O)[C@H]([C@@H](C)O)NC(=O)[C@H](CCN)NC(=O)[C@H](CCN)NC(=O)[C@H](CC(C)C)NC(=O)[C@@H](Cc2ccccc2)NC(=O)[C@H](CCN)NC1=O)[C@@H](C)O` (some centres unmarked) [Example 1] ({X3-Ahx-Ahx}-[Gly(octyl)][Dab]T[Dab][Dab][Dab][dF]L[Dab][Dab]T; lactam 5-C), for which the “IgG Recruitment (40 μM, Average fold change)” value in assay [1] is given as 77.7 fold change. For the same molecule, the “C3b deposition (5 μM, Average fold change)” value in assay [2] stood at 109.8 fold change.
Take `CCCCCCCC[C@H](NC(=O)CCCCCNC(=O)CCCCCNC(=O)c1cc(OCC(=O)NCCNC(=O)CCCOC2O[C@@H](C)C(O)C(O)[C@@H]2O)cc(-c2cc(OCC(=O)NCCNC(=O)CCCOC3O[C@@H](C)C(O)C(O)[C@@H]3O)cc(OCC(=O)NCCNC(=O)CCCOC3O[C@@H](C)C(O)C(O)[C@@H]3O)c2)c1)C(=O)N[C@@H](CCN)C(=O)N[C@H](C(=O)N[C@@H](CCN)C(=O)N[C@H]1CCNC(=O)[C@H]([C@@H](C)O)NC(=O)[C@H](CCN)NC(=O)[C@H](CCN)NC(=O)[C@H](CC(C)C)NC(=O)[C@@H](Cc2ccccc2)NC(=O)[C@H](CCN)NC1=O)[C@@H](C)O` (some centres unmarked) [Example 2] ({X1-Ahx-Ahx}-[Gly(octyl)][Dab]T[Dab][Dab][Dab][dF]L[Dab][Dab]T; lactam 5-C): in assay [1], the “IgG Recruitment (40 μM, Average fold change)” value is given as 3.4 fold change. Further, the “C3b deposition (5 μM, Average fold change)” value in assay [2] came out at 148.1 fold change.
Take `CCCCCCCCC(=O)N[C@@H](CCNC(=O)CCCCCNC(=O)CCCCCNC(=O)c1cccc(-c2ccc(OCC(=O)NCCNC(=O)CCCOC3O[C@@H](C)C(O)C(O)[C@@H]3O)cc2)c1)C(=O)N[C@H](C(=O)N[C@@H](CCN)C(=O)N[C@H]1CCNC(=O)[C@H]([C@@H](C)O)NC(=O)[C@H](CCN)NC(=O)[C@H](CCN)NC(=O)[C@H](CC(C)C)NC(=O)[C@@H](Cc2ccccc2)NC(=O)[C@H](CCN)NC1=O)[C@@H](C)O` (stereo partly drawn) [Example 5] (Nonanoyl-[Dab]([Ahx-Ahx-X3])T[Dab][Dab][Dab][dF]L[Dab][Dab]T; lactam 4-C): the “IgG Recruitment (40 μM, Average fold change)” value in assay [1] is reported as 8.45 fold change. The “C3b deposition (5 μM, Average fold change)” value in assay [2] is listed as 20.5 fold change.
Take `CC[C@H](C)CCCCC(=O)N[C@@H](CCN)C(=O)N[C@H](C(=O)N[C@@H](CCN)C(=O)N[C@H]1CCNC(=O)[C@H]([C@@H](C)O)NC(=O)[C@H](CCN)NC(=O)[C@H](CCN)NC(=O)[C@H](CC(C)C)NC(=O)[C@@H](Cc2ccccc2)NC(=O)[C@H](CCN)NC1=O)[C@@H](C)O` [Polymyxin B, reference compound] (X2-[Dab]T[Dab][Dab][Dab][dF]L[Dab][Dab]T; lactam 4-C): the “IgG Recruitment (40 μM, Average fold change)” value in assay [1] came out at 1.58 fold change. For the same molecule, the “C3b deposition (Average fold change)” value in assay [2] (20 μM PmxB) worked out at 24.535 fold change.
